Experimental data: patent publication US11046680B1, “Heteroaryl-substituted triazoles as APJ receptor agonists” (priority 2016, dated 2021)

target: human APJ receptor (Homo sapiens (Human), UniProt P35414); assay: biochemical; type: biochemical; details: [35S]GTPγS binding, CHO membranes expressing human APJ receptor; read-out: Activity hAPJ SPA EC50 IP
How it was run: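 GTPγS binding on membranes from CHO cells stably expressing FLAG-tagged human APJ, with optimized GDP, MgCl2 and NaCl; incubated 90 min at RT before imaging read-out.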

human APJ receptor, sequence (P35414 whole entry): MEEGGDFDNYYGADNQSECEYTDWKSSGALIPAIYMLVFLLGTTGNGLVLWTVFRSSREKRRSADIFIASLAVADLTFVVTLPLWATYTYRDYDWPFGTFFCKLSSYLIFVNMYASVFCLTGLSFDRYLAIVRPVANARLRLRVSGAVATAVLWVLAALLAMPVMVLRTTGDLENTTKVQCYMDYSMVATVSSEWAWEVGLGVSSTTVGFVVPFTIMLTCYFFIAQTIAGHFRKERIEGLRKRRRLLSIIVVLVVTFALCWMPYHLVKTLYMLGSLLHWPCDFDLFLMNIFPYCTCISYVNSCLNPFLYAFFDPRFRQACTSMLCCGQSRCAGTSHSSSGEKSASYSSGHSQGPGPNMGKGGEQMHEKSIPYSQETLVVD

| Structure (SMILES) | EC50 |
| --- | --- |
| COc1cccc(OC)c1-n1c(NS(=O)(=O)[C@@H](C)[C@H](OC)c2ncc(Cl)cn2)nnc1-c1c[nH]c2ncccc12 [Example 419.0, (1R,2S)-1-(5-chloropyrimidin-2-yl)-N-(4-(2,6-dimethoxyphenyl)-5-(1H-pyrrolo[2,3-b]pyridin-3-yl)-4H-1,2,4-triazol-3-yl)-1-methoxypropane-2-sulfonamide] | 2.4 nM |
| COc1ccc(N2CCOCC2=O)cc1-n1c(NS(=O)(=O)CCc2ccc(Cl)cc2)nnc1-c1cccs1 [Example 127.0, 2-(4-Chlorophenyl)-N-(4-(2-methoxy-5-(3-oxo-4-morpholinyl)phenyl)-5-(2-thiophenyl)-4H-1,2,4-triazol-3-yl)ethanesulfonamide] | 300 nM |
| CCn1ccc(-c2nnc(NS(=O)(=O)[C@@H](C)[C@H](C)c3ncc(C)cn3)n2-c2c(OC)cccc2OC)n1 [Example 389.0, (2S,3R)-N-(4-(2,6-Dimethoxyphenyl)-5-(1-ethyl-1H-pyrazol-3-yl)-4H-1,2,4-triazol-3-yl)-3-(5-methylpyrimidin-2-yl)butane-2-sulfonamide] | 0.34 nM |
| CNC(=O)n1ccc(-c2nnc(NS(=O)(=O)[C@@H](C)Cc3ncc(F)cn3)n2-c2c(OC)cccc2OC)n1 (racemic) [Example 72.0, (R)-3-(4-(2,6-dimethoxyphenyl)-5-(2-(5-fluoropyrimidin-2-yl)-1-methylethylsulfonamido)-4H-1,2,4-triazol-3-yl)-N-methyl-1H-pyrazole-1-carboxamide (S)-3-(4-(2,6-dimethoxyphenyl)-5-(2-(5-fluoropyrimidin-2-yl)-1-methylethylsulfonamido)-4H-1,2,4-triazol-3-yl)-N-methyl-1H-pyrazole-1-carboxamide] | 41 nM |
| COc1cccc(OC)c1-n1c(NS(=O)(=O)[C@H](C)Cc2ncc(F)cn2)nnc1-c1ncccn1 (single isomer, unassigned) [Example 59.0, (R)-N-(4-(2,6-dimethoxyphenyl)-5-(pyrimidin-2-yl)-4H-1,2,4-triazol-3-yl)-1-(5-fluoropyrimidin-2-yl)propane-2-sulfonamide or (S)-N-(4-(2,6-dimethoxyphenyl)-5-(pyrimidin-2-yl)-4H-1,2,4-triazol-3-yl)-1-(5-fluoropyrimidin-2-yl)propane-2-sulfonamide] | 110 nM |
| COc1cccc(OC)c1-n1c(NS(=O)(=O)[C@H](C)[C@@H](C)c2ncc(C)cn2)nnc1-c1n[nH]c2ccccc12 [Example 431.0, (2R,3S)-N-(4-(2,6-dimethoxyphenyl)-5-(1H-indazol-3-yl)-4H-1,2,4-triazol-3-yl)-3-(5-methylpyrimidin-2-yl)butane-2-sulfonamide] | 14 nM |
| COc1cccc(OC)c1-n1c(NS(=O)(=O)[C@H](C)Cc2ncc(F)cn2)nnc1-c1nc(C)cs1 [Example 100.0] | 3 nM |
| COc1ccc(C(=O)O)cc1-n1c(NS(=O)(=O)CCc2ccc(Cl)cc2)nnc1-c1cccs1 [Example 245.0, 3-(3-(2-(4-chlorophenyl)ethylsulfonamido)-5-(thiophen-2-yl)-4H-1,2,4-triazol-4-yl)-4-methoxybenzoic acid] | 210 nM |
| COc1cnc([C@@H](C)[C@@H](C)S(=O)(=O)Nc2nnc(-c3ccn(C)n3)n2-c2c(OC)ncnc2OC)nc1 [Example 298.0] | 1 nM |
| CCO[C@@H](c1ncc(Cl)cn1)[C@@H](C)S(=O)(=O)Nc1nnc(-c2ccn(C)n2)n1-c1c(OC)cccc1OC (single isomer, unassigned) [Example 354.0, (1S,2R)-1-(5-chloropyrimidin-2-yl)-N-(4-(2,6-dimethoxyphenyl)-5-(1-methyl-1H-pyrazol-3-yl)-4H-1,2,4-triazol-3-yl)-1-ethoxypropane-2-sulfonamide or (1R,25)-1-(5-chloropyrimidin-2-yl)-N-(4-(2,6-dimethoxyphenyl)-5-(1-methyl-1H-pyrazol-3-yl)-4H-1,2,4-triazol-3-yl)-1-ethoxypropane-2-sulfonamide] | 0.75 nM |
